Experiments:
[1] = system: zebrafish neuromast hair cells; test: Zebrafish model for excitotoxicity (kainic acid induced hair cell death); format: in vivo; settings: for performance compared with Piperlongumine against kainic acid (KA) induced hair cell death: KA 300 μM 1 hour, then derivative 2 hours at 1 nM to 100 μM, better at at least one dose
Procedure: 5dpf Tg(Brn3c:mGFP) larvae were used for the experiments. Zebrafish were pretreated with kainic acid for one hour (300 μM) to mimic the excitotoxic damage induced by noise exposure, and then, post-treated with Piperlongumine-25 for 2 hours (al concentrations of 0.001 μM; 0.1 μM; 10 μM; and 100 μM). Control animal were treated with DMSO (−) or Piperlongumine-25 alone (+). Animals were then fixed and immunostained for GFP. Quantification was done by assessing three neuromasts in the same anatomic location of each animal (n=5). The data is plotted as mean+SD. Statistical testing was done with One-way ANOVA and Dunnett post-hoc test (P<0.0001 compared to KA).
Subsequently, animals were transferred to E3 water for 5 hours and fixed in 4% paraformaldehyde (PFA) overnight. Neuromast HCs were immunolabeled with anti-otoferlin (HCS-1, DSHB) and anti-GFP (NB100-1614, Novus Biologicals). These two markers were used to detect and count neuromast HCs to reduce the chances of missing some of the HCs after the treatment since as it was previously noticed that incubation with the compounds can affect GFP expression more difficult to detect under a fluorescence microscope. Otic, middle, and opercular neuromasts were identified, and HCs at SO3 (supraorbital line neuromast) and O1-2 (Otic line neuromasts) were manually counted using a Zeiss AxioSkop 2 fluorescence microscope with a 40× oil objective. Control animals were treated with DMSO (−) or Neo or GM alone (+) Animals were then fixed and immunostained for GFP and otoferlin. Quantification was done by assessing three neuromasts in the same anatomic location of each animal (n=5). The data is plotted as mean+SD. Statistical testing was done with One-way ANOVA and Dunnett post-hoc test (*P<0.05, **P<0.01, ***P<0.001 compared to either Neo or GM, respectively). […] For the screening of piperlongumine derivatives for protection against noise-induced hearing loss we employed a zebrafish model that mimics excitotoxic damage. Five-day post-fertilization (dpf) Tg(brn3c:GFP) larvae were incubated with 300 μM of KA for 1 hour followed by piperlongumine-25 for 2 hours at 0.001 μM, 0.1 μM, 10 μM, and 100 μM. DMSO and KA were used as controls.
5 dpf fish were incubated with KA 300 μM for 1 hour followed by a two-hour incubation with one of the piperlongumine derivatives at 1 nM to 100 μM. Animals were fixed and immunostained for the hair cell marker, otoferlin. Neuromast hair cells were counted under a fluorescence microscope. At least 3 neuromast of the rostral lateral line were inspected per fish, in a total of 6 fish per treatment. Results are presented as mean+/−SD. Control, KA only, PG only, PG+KA, derivatives that were no protective against excitotoxicity, derivatives that performed better than PG.
5dpf fish were incubated with KA 300 μM for 1 hour followed by one of the PG derivatives at different concentrations for additional 2 hours. Animals were fixed and immunostained for otoferlin. Neuromast hair cells were quantified in at least 3 rostral neuromasts per fish in a total of 6 fish per treatment. Results are expressed as mean+/−SD. Statistical analysis: One-way ANOVA *P<0.05, **P<0.01, P<0.001 versus KA alone. These five Piperlongumine derivatives performed better than Piperlongumine at least one dose.

[2] = system: mouse embryonic fibroblast (MEFs); test: MTT viability of mouse embryonic fibroblasts exposed to aminoglycosides; format: cell-based; settings: 15 hours
Procedure: (§1) MEFs were incubated for 15 hours with neomycin (100 μM) or gentamicin (8 μM) with or without Piperlongumine (0.1 nM-5 μM). Cell viability was assessed employing MTT (3-(4-,5-dimethylthiazol-2-yl)-2,5-diphenyltetrazolium bromide) viability kit test (Thermo Fisher). The data is plotted as mean+SD. Statistical testing was done with One-way ANOVA and Dunnett post-hoc test (*P<0.05, **P<0.01 compared to either Neo or GM, respectively).
as §1, with “Now referring to FIG. 7 (E)-1-(3-(3,4,5-trimethoxyphenyl)acryloyl)-S,6-dihydropyridin-2(1H)-one protects mouse embryonic fibroblast (MEFs) against aminoglycosides. MEFs” for “MEFs”, “without(E)-1-(3-(3,4,5-trimethoxyphenyl)acryloyl)-S,6-dihydropyridin-2(1H)-one” for “without Piperlongumine”, “μM) at 0.1 nM, 0.5 nM, 1 nM, 5 nM, 10 nM, 50 nM, 100 nM, and 500 nM.” for “μM).”

[3] = system: zebrafish lateral line neuromast hair cells; test: Zebrafish lateral line neuromast hair cell counts after aminoglycoside (neomycin or gentamycin); format: in vivo, Danio rerio; settings: 5 dpf larvae
Text: Now referring to FIGS. 5A-C,(E)-1-(3-(3,4,5-trimethoxyphenyl)acryloyl)-S,6-dihydropyridin-2(1H)-one (Piperlongumine) protects from aminoglycoside induced hair cell loss in zebrafish lateral line neuromasts in vivo. Zebrafish lateral line neuromast HC counts are commonly used in vivo models for screening otoprotectants. Danio rerio experimental larvae were obtained by pair mating of adult fish maintained at Creighton University by standard methods approved by the Institutional Animal Care and Use Committee. Fish used were Tg(pou4f3:mGFP) expressing a membrane bound GFP in HCs. […] The lateral-line neuromasts of zebrafish are a valuable system for testing protectivity of compounds against aminoglycoside toxicity in vivo, as their HCs are considered homologous to those in the mammalian inner ear and are readily accessible to drugs. […]
Subsequently, animals were transferred to E3 water for 5 hours and fixed in 4% paraformaldehyde (PFA) overnight. […] These two markers were used to detect and count neuromast HCs to reduce the chances of missing some of the HCs after the treatment since as it was previously noticed that incubation with the compounds can affect GFP expression more difficult to detect under a fluorescence microscope. […] Quantification was done by assessing three neuromasts in the same anatomic location of each animal (n=5). […]

[4] = system: C57BL/6 (Cdh23 corrected) mice; test: ABR thresholds in kanamycin exposed mice; format: in vivo, mouse; settings: at 22.6 kHz; 40 mg/kg b.w. once a day for 17 days IP; kanamycin 700 mg/kg twice a day for 14 days; p=0.0408
Procedure: (§2) C57BI6 (Cdh23 corrected) (6-7 weeks old) were exposed to vehicle+kanamycin (Veh+Kan) (700 mg/kg b.w. twice a day for 14 days) (shown as circles with four breaks); or (E)-1-(3-(3,4,5-trimethoxyphenyl)acryloyl)-S,6-dihydropyridin-2(1H)-one+kanamycin (PLM+Kan) with (E)-1-(3-(3,4,5-trimethoxyphenyl)acryloyl)-S,6-dihydropyridin-2(1H)-one (40 mg/kg b.w. once a day for 17 days) (shown as circle no breaks). Age match controls are shown (age, shown as circle with three breaks). Auditory brainstem response (ABR) thresholds were recorded for frequencies (4 kHz, 5.6 kHz, 8 kHz, 16 kHz, 22.6 kHz, 32 kHz, 45.2 kHz, and 64 kHz) before and after treatment protocol. […] Statistical analysis was done with repeated measures ANOVA between groups.
Now referring to FIG. 8A, Piperlongumine protects from aminoglycoside toxicity in mice in vivo. 6-7-week-old C57BL/6 (Cdh23 corrected) were used, with a mix of males and females across experiments. […] Piperlongumine's protection against hearing impairment loss was assessed by measuring ABR threshold shifts in the mouse ear.
Animals were anesthetized with a mixture of ketamine/xylazine before ABR assessment. […] Evoked responses were amplified (20x), bandpass filtered (300-3,000 Hz) and average of 512 responses of 10 ms duration was recorded. […]

[5] = system: C57BL/6 (Cdh23 corrected) mice; test: General toxicity in mice over the 17-day treatment regimen; format: in vivo, mouse; settings: 40 mg/kg b.w. for 17 days, with and without kanamycin
Procedure: as §2
Now referring to FIG. 8A, Piperlongumine protects from aminoglycoside toxicity in mice in vivo. 6-7-week-old C57BL/6 (Cdh23 corrected) were used, with a mix of males and females across experiments. Procedures were approved by the IACUC committee of the Creighton University.) Mice were treated with Piperlongumine (40 mg/kg b.w., for 17 days, IP) with or without kanamycin treatment (700 mg/kg b.w. for 14 days twice a day, s.q.). Piperlongumine's protection against hearing impairment loss was assessed by measuring ABR threshold shifts in the mouse ear.
Age-control group mice were administered saline. […] Data are presented as mean+SD, n=3-4/group.

O=C(/C=C/c1ccc2c(c1)OC(F)(F)O2)N1CCCCCC1=O [PG 53]
performance compared with Piperlongumine against kainic acid (KA) induced hair cell death [1]: better performance than Piperlongumine

O=C(/C=C/c1ccc2c(c1)OC(F)(F)O2)N1CCCCC1=O [PG 54]
performance compared with Piperlongumine against kainic acid (KA) induced hair cell death [1]: better performance than Piperlongumine

COc1cccc(/C=C/C(=O)N2CCCCC2=O)c1 [PG25]
protection of neuromast hair cells from excitotoxic damage induced by kainic acid ([1]; 300 μM KA 1 hour, then compound 2 hours at 0.001 μM, 0.1 μM, 10 μM, 100 μM): protects neuromast hair cells from excitotoxic damage
performance compared with Piperlongumine against kainic acid (KA) induced hair cell death [1]: better performance than Piperlongumine

COc1cc(/C=C/C(=O)N2CCC=CC2=O)cc(OC)c1OC [Piperlongumine, (E)-1-(3-(3,4,5-trimethoxyphenyl)acryloyl)-S,6-dihydropyridin-2(1H)-one]
protection of MEFs against gentamycin (cell viability, MTT) ([2]; gentamicin 8 μM, observed at 0.1 nM to 1 nM): 100%
protection of MEFs against neomycin (cell viability, MTT) ([2]; neomycin 100 μM, observed at 0.1 nM to 10 nM): 100%
protection from gentamycin-induced hair cell death ([3]; 1 hour pre-incubation then co-incubation with 100 μM gentamycin for 1 hour): protects zebrafish neuromasts from gentamycin-induced hair cell death
protection from neomycin-induced hair cell death ([3]; 1 hour pre-incubation then co-incubation with 200 μM Neomycin for 30 minutes): protects zebrafish neuromasts from neomycin-induced hair cell death
protection of ABR threshold against kanamycin [4]: significant protection
general toxicity [5]: not toxic

O=C(/C=C/c1ccccc1)N1CCC1=O [PG 18]
performance compared with Piperlongumine against kainic acid (KA) induced hair cell death [1]: better performance than Piperlongumine

O=C(/C=C/c1ccco1)N1CCC1=O [PG3]
performance compared with Piperlongumine against kainic acid (KA) induced hair cell death [1]: better performance than Piperlongumine

— patent publication US12070465B2, “Compositions and methods for the prevention and treatment of hearing loss” (Ting Therapeutics LLC, priority 2020, dated 2024)
